Assay results taken from PMC11357100 (2024).

Columns and labels:
Assay in all cases: UV melting at 295 nm
[1] = system: RET (DNA, G4) GGGGCGGGGCGGGGCGGGGT; settings: 10 mM KCl, 90 mM LiCl; 10 mM Tris-HCl pH 7.2; 2 µM DNA, 3 equiv. ligand; Tm 75.30 ± 0.80 to 76.4 ± 1.2
[2] = system: catG4 (DNA, G4) TGGGTAGGGCGGGTTGGGAAA; settings: 10 mM KCl, 90 mM LiCl; 10 mM Tris-HCl pH 7.2; 2 µM DNA, 3 equiv. ligand; Tm 63.30 ± 0.10 to 62.80 ± 0.30
[3] = system: c-KIT1 (DNA, G4) AGGGAGGGCGCTGGGAGGAGGG; settings: 10 mM KCl, 90 mM LiCl; 10 mM Tris-HCl pH 7.2; 2 µM DNA, 3 equiv. ligand; Tm 52.9 ± 1.0 to 54.40 ± 0.60
[4] = system: c-MYC (DNA, G4) TGAGGGTGGGTAGGGTGGGTAA; settings: 10 mM KCl, 90 mM LiCl; 10 mM Tris-HCl pH 7.2; 2 µM DNA, 3 equiv. ligand; Tm 79.10 ± 0.10 to 80.6 ± 1.7

SMILES: COc1nc2c(N)ncnc2[n+]2ccccc12
- ΔTm [1]: 1.1 °C
- ΔTm [2]: -0.5 °C
- ΔTm [3]: 1.5 °C
- ΔTm [4]: 1.5 °C
